Measured values taken from ChEMBL document CHEMBL3102830, “Involvement of apoptosis and autophagy in the death of RPMI 8226 multiple myeloma cells by two enantiomeric sigma receptor ligands” (Bioorg Med Chem, 2014).
Calls of active or inactive are those of the source. No cut-off for these calls is given here.

Columns and labels:
[1] = system: RPMI-8226; test: Cytotoxicity against human RPMI8226 cells assessed as cell viability after 72 hrs by MTT assay; type: functional, cell-based; details: for IC50: RPMI-8226, 72 h
[2] = Binding affinity to sigma-2 receptor in human MCF7 cells; type: cell-based
[3] = system: RPMI-8226; test: Induction of apoptosis in human RPMI8226 cells assessed as caspase-9 activation at 23 uM by flow cytometric analysis in presence of […]; type: functional, cell-based; details: TDE = time-dependent effect
[4] = system: RPMI-8226; test: Induction of apoptosis in human RPMI8226 cells assessed as caspase-8 activation at 23 uM by flow cytometric analysis in presence of FITC-IETD-FMK; type: functional, cell-based; details: TDE = time-dependent effect
[5] = system: RPMI-8226; test: Induction of apoptosis in human RPMI8226 cells assessed as caspase-3 activation at 23 uM by flow cytometric analysis in presence of […]; type: functional, cell-based; details: TDE = time-dependent effect
[6] = system: RPMI-8226; test: Induction of apoptosis in human RPMI8226 cells assessed as chromatin condensation at 23 uM after 24 to 48 hrs by DAPI staining-based fluorescence microscopic analysis; type: functional, cell-based
[7] = system: RPMI-8226; test: Induction of apoptosis in human RPMI8226 cells assessed as increase in apoptotic cells at 23 uM after 24 to 48 hrs by annexin V-FITC/propidium iodide staining-based flow cytometric analysis; type: functional, cell-based
[8] = system: RPMI-8226; test: Induction of apoptosis in human RPMI8226 cells at 23 uM after 6 hrs by annexin V-FITC/propidium iodide staining-based flow cytometric analysis; type: functional, cell-based
[9] = system: HL-60; test: Cytotoxicity against human HL60 cells assessed as cell viability at 20 uM after 72 hrs by MTT assay; type: functional, cell-based
[10] = system: RPMI-8226; test: Selectivity ratio of Ki for sigma-2 receptor in human RT4 cell homogenates to Ki for sigma-1 receptor in human RPMI8226 cells; type: cell-based
[11] = Selectivity ratio of Ki for sigma-2 receptor in rat liver homogenates to Ki for sigma-1 receptor in guinea pig brain homogenates; type: tissue-based
[12] = Displacement of [3H]-DTG from sigma-2 receptor in human RT4 cell homogenates in presence of (+)-pentazocine; type: tissue-based; details: rt-4
[13] = Displacement of [3H]-DTG from sigma-2 receptor in rat liver homogenates in presence of (+)-pentazocine; type: tissue-based
[14] = target: Sigma non-opioid intracellular receptor 1 (Homo sapiens, UniProt Q99720); test: Displacement of [3H]-(+)-pentazocine from sigma-1 receptor in human RPMI8226 cells; type: cell-based, RPMI-8226
[15] = target: Sigma non-opioid intracellular receptor 1 (Cavia porcellus, UniProt Q60492); test: Displacement of [3H]-(+)-pentazocine from sigma-1 receptor in guinea pig brain homogenates; type: tissue-based
[16] = system: RPMI-8226; test: Induction of apoptosis in human RPMI8226 cells assessed as early apoptotic cells at 23 uM after 48 hrs by annexin V-FITC/propidium iodide staining-based flow cytometric analysis in presence of wortmannin; type: functional, cell-based
[17] = system: RPMI-8226; test: Induction of apoptosis in human RPMI8226 cells assessed as early apoptotic cells at 23 uM after 48 hrs by annexin V-FITC/propidium iodide staining-based flow cytometric analysis; type: functional, cell-based
[18] = system: RPMI-8226; test: Induction of autophagy in human RPMI8226 cells assessed as p62 protein expression at 23 uM after 48 hrs by Western blotting analysis in presence of wortmannin; type: functional, cell-based
[19] = system: RPMI-8226; test: Induction of autophagy in human RPMI8226 cells assessed as p62 protein expression at 23 uM after 48 hrs by Western blotting analysis in presence of 3-methyladenine; type: functional, cell-based
[20] = system: RPMI-8226; test: Induction of autophagy in human RPMI8226 cells assessed as […] protein expression at 23 uM after 48 hrs by Western blotting analysis in presence of wortmannin; type: functional, cell-based
[21] = system: RPMI-8226; test: Induction of autophagy in human RPMI8226 cells assessed as […] protein expression at 23 uM after 48 hrs by Western blotting analysis in presence of 3-methyladenine; type: functional, cell-based
[22] = system: RPMI-8226; test: Induction of autophagy in human RPMI8226 cells assessed as p62 protein level at 23 uM after 6 to 96 hrs by Western blotting analysis in presence of alpha-tocopherol; type: functional, cell-based
[23] = system: RPMI-8226; test: Induction of autophagy in human RPMI8226 cells assessed as […] protein level at 23 uM after 6 to 96 hrs by Western blotting analysis in presence of alpha-tocopherol; type: functional, cell-based
[24] = system: RPMI-8226; test: Induction of autophagy in human RPMI8226 cells assessed as p62 protein expression at 23 uM after 6 to 96 hrs by Western blotting analysis; type: functional, cell-based
[25] = system: RPMI-8226; test: Induction of autophagy in human RPMI8226 cells assessed as […] at 23 uM by Western blotting analysis; type: functional, cell-based; details: TDE = time-dependent effect
[26] = system: RPMI-8226; test: Induction of apoptosis in human RPMI8226 cells assessed as early/late apoptotic cells at 23 uM after 48 hrs by annexin V/propidium iodide staining-based flow cytometric analysis in presence of alpha-tocopherol; type: functional, cell-based
[27] = system: RPMI-8226; test: Induction of apoptosis in human RPMI8226 cells assessed as early apoptotic cells at 23 uM after 24 to 48 hrs by annexin V/propidium iodide staining-based flow cytometric analysis in presence of alpha-tocopherol; type: functional, cell-based
[28] = system: RPMI-8226; test: Induction of apoptosis in human RPMI8226 cells assessed as decrease in mitochondrial membrane potential at 23 uM by JC-1 staining-based flow cytometric analysis; type: functional, cell-based; details: TDE = time-dependent effect
[29] = system: RPMI-8226; test: Induction of reactive oxygen species generation in human RPMI8226 cells at 23 uM after 0.5 to 24 hrs by DCFDA dye-based flow cytometric analysis; type: functional, cell-based
[30] = system: RPMI-8226; test: Induction of lipid peroxidation in human RPMI8226 cells at 23 uM after 5 to 24 hrs by flow cytometric analysis in presence of alpha-tocopherol; type: functional, cell-based
[31] = system: RPMI-8226; test: Induction of lipid peroxidation in human RPMI8226 cells at 23 uM after 5 to 24 hrs by flow cytometric analysis; type: functional, cell-based

Chain of Sigma non-opioid intracellular receptor 1 (Homo sapiens, UniProt Q99720) (Q99720 whole entry): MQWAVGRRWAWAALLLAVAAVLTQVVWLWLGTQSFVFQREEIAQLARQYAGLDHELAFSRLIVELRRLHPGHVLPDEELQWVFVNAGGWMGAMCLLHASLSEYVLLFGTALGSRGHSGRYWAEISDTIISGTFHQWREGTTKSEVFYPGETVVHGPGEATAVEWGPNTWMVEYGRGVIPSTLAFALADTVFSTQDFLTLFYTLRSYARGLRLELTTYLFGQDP
Chain of Sigma non-opioid intracellular receptor 1 (Cavia porcellus, UniProt Q60492) (Q60492 whole entry): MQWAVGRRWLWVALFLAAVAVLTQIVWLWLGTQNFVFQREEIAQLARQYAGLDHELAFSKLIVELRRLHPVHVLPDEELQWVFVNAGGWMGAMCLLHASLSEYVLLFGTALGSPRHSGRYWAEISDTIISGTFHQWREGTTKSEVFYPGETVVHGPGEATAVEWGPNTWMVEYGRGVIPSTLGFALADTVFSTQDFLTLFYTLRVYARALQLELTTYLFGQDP

For `COc1cccc2c1CCCC2CCCN1CCN(C2CCCCC2)CC1` (stereo not drawn), the IC50 [1] was 9.29 µM and the Ki [2] was 0.00028 µM.
With `OCC[C@@H]1CN(CC2CCCCC2)CCN1Cc1ccc(-c2ccccc2)cc1` the Activity [3] was “tde”, the Activity [4] was “tde” and the Activity [5] was “tde”. For the same molecule, the Activity [6] was “Active”, the Activity [7] was “Active” and the Activity [8] was “inactive”. The Activity [9] was “inactive”, the Activity [1] was “Dose-dependent effect” and the IC50 [1] was 13 µM. The Ratio Ki [10] was 1.3, the Ratio Ki [11] was 4.5 and the Ki [12] was 0.039 µM. It also gave a Ki [13] of 0.038 µM, a Ki [14] of 0.029 µM and a Ki [15] of 0.0078 µM. The Activity [16] was “Active”, the Activity [17] was “Active” and the Activity [18] was “inactive”. The Activity [19] was “inactive”, the Activity [20] was “Active” and the Activity [21] was “Active”. For the same molecule, the Activity [22] was “inactive”, the Activity [23] was “inactive” and the Activity [24] was “inactive”. The Activity [25] was “tde”, the Activity [26] was “inactive” and the Activity [27] was “inactive”. For the same molecule, the Activity [28] was “tde”, the Activity [29] was “inactive” and the Activity [30] was “inactive”. The Activity [31] was “Active”.
